Reference: patent publication US9624228B2, “Inhibitors of ERK and methods of use” (KURA ONCOLOGY, INC., priority 2013, dated 2017)

Target: ERK2 enzyme (Homo sapiens (Human), UniProt P28482)
Test: Inhibition assay of ERK (Z'-LYTE kinase assay, Ser/Thr 3 peptide substrate)
Format: biochemical
Details: 100 μM ATP
[1] = In vitro, ERK2 enzyme 0.47 ng/μL

ERK2 enzyme, sequence (P28482 whole entry): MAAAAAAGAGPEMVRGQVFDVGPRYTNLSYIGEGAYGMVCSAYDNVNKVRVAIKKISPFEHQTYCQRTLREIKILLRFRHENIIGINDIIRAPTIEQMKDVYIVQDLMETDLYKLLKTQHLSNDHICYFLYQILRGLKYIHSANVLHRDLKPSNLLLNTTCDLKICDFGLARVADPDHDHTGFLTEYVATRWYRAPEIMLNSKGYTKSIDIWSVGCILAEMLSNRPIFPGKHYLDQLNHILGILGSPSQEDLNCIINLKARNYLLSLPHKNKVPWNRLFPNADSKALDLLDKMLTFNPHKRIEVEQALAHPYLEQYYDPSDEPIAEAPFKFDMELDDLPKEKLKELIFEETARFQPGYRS

IC50 [1] | IC50 (In vitro ERK2 enzyme) | SMILES
50 to 250 nM | – | Cc1cc(-c2n[nH]c3cc4c(cc23)CN([C@@H]2CN(CC(F)(F)F)C[C@H]2C(C)C)C(=O)N4)ccn1 (mixture of isomers) [Compound 322]
– | < 50 nM | COc1cc(-c2n[nH]c3cc4c(cc23)CN(Cc2ccc(F)c(Cl)c2)C(=O)N4)ccn1 [Compound 38]
– | 50 to 250 nM | COc1ccc(-c2n[nH]c3cc4c(cc23)CN([C@H](C)c2cccc(Cl)c2)C(=O)N4)cn1 [Compound 74]
< 50 nM | – | O=C1Nc2cc3[nH]nc(-c4ccc(N5CCOCC5)nc4)c3cc2CN1Cc1cccc(Cl)c1 [Compound 231]
– | < 50 nM | COc1ncc(-c2n[nH]c3cc4c(cc23)CN([C@@H]2CCCN(Cc3c(F)cccc3OC)C2)C(=O)N4)cn1 [Compound 103]
– | 250 to 1000 nM | COc1ncc(-c2n[nH]c3cc4c(cc23)CN(CC2CCN(CC3CC3)CC2)C(=O)N4)cn1 [Compound 82]
– | < 50 nM | Cc1cc(-c2n[nH]c3cc4c(cc23)CN([C@@H]2CCCN(Cc3cccnc3C)C2)C(=O)N4)ccn1 [Compound 170]
– | 50 to 250 nM | Cc1cc(-c2n[nH]c3cc4c(cc23)CN(C2CN(CCc3ccccc3)C2)C(=O)N4)ccn1 [Compound 192]
– | < 50 nM | COc1ccc(-c2n[nH]c3cc4c(cc23)CN(Cc2cc(F)cc(F)c2)C(=O)N4)cn1 [Compound 92]
< 50 nM | – | Cc1cc(-c2n[nH]c3cc4c(cc23)CN(C2CCCCC2)C(=O)N4)ccn1 [Compound 204]
< 50 nM | – | Cc1cc(-c2n[nH]c3cc4c(cc23)CN(C2CCOC(C)(C)C2)C(=O)N4)ccn1 (stereo not shown) [Compound 219]
< 50 nM | – | Cn1nccc1-c1n[nH]c2cc3c(cc12)CN([C@@H]1CCCN(Cc2ccccc2)C1)C(=O)N3 [Compound 261]
< 50 nM | – | Cc1cc(-c2n[nH]c3cc4c(cc23)CN(CC2CCOCC2)C(=O)N4)ccn1 [Compound 211]
50 to 250 nM | – | Cc1cc(-c2n[nH]c3cc4c(cc23)CN([C@@H]2CCN(c3ccc(F)cn3)C2)C(=O)N4)ccn1 [Compound 257]
< 50 nM | – | Cc1cc(-c2n[nH]c3cc4c(cc23)CN(C(C)C2CCCC2)C(=O)N4)ccn1 (stereo not shown) [Compound 294]
< 50 nM | – | COc1ncc(-c2n[nH]c3cc4[nH]c(=O)c(C5CCCN(Cc6ccccc6)C5)cc4cc23)cn1 (stereo not shown) [Compound 364]
– | < 50 nM | Cc1cc(-c2n[nH]c3cc4c(cc23)CN([C@@H]2CCCN(CCc3cccc(Cl)c3)C2)C(=O)N4)ccn1 [Compound 164]
– | < 50 nM | Cc1cc(-c2n[nH]c3cc4c(cc23)CN([C@@H]2CCCN(Cc3csc(C)n3)C2)C(=O)N4)ccn1 [Compound 140]
< 50 nM | – | Cc1cc(-c2n[nH]c3cc4c(cc23)CN([C@@H]2CCCN(Cc3ccc(F)s3)C2)C(=O)N4)ccn1 [Compound 290]
– | < 50 nM | O=C1Nc2cc3[nH]nc(-c4ccnnc4)c3cc2CN1[C@@H]1CCCN(Cc2c(F)cccc2F)C1 [Compound 122]
< 50 nM | – | Cc1cc(-c2n[nH]c3cc4c(cc23)CN(C2CCCC2)C(=O)N4)ccn1 [Compound 205]
– | < 50 nM | N#Cc1cccc(CN2Cc3cc4c(-c5ccnnc5)n[nH]c4cc3NC2=O)c1 [Compound 128]
– | < 50 nM | Cc1cc(-c2n[nH]c3cc4c(cc23)CN([C@@H]2CCCOC2)C(=O)N4)ccn1 [Compound 49]
– | < 50 nM | COc1ncc(-c2n[nH]c3cc4c(cc23)CN([C@@H]2CCCN(Cc3ccccc3F)C2)C(=O)N4)cn1 [Compound 101]
< 50 nM | – | Cc1cc(-c2n[nH]c3cc4c(cc23)CN([C@@H]2CN(CCO)C[C@H]2c2ccccc2)C(=O)N4)ccn1 (mixture of isomers) [Compound 376]
– | 50 to 250 nM | Cc1cc(-c2n[nH]c3cc4c(cc23)CN([C@@H]2CCCN(Cc3cnccc3C)C2)C(=O)N4)ccn1 [Compound 183]

IC50 [1] | IC50 (In vitro ERK2 enzyme) | SMILES
– | < 50 nM | Cc1cc(-c2n[nH]c3cc4c(cc23)CN([C@@H]2CCCN(Cc3ccc(F)cc3F)C2)C(=O)N4)ccn1 [Compound 196]
< 50 nM | – | COc1ncc(-c2n[nH]c3cc4c(cc23)CN([C@@H]2CCN(CC(F)(F)F)C2)C(=O)N4)cn1 [Compound 276]
– | < 50 nM | Nc1ncc(-c2n[nH]c3cc4c(cc23)CN(Cc2cccc(Cl)c2)C(=O)N4)cn1 [Compound 93]
– | < 50 nM | Cc1cc(-c2n[nH]c3cc4c(cc23)CN(Cc2cccc(C#N)c2)C(=O)N4)ccn1 [Compound 55]
– | < 50 nM | Cc1cc(-c2n[nH]c3cc4c(cc23)CN(C2CN(Cc3ccccc3)C2)C(=O)N4)ccn1 [Compound 191]
< 50 nM | – | Cc1cc(-c2n[nH]c3cc4c(cc23)CN(Cc2ccccc2Cl)C(=O)N4)ccn1 [Compound 217]
– | 50 to 250 nM | Cc1cc(-c2n[nH]c3cc4c(cc23)CN([C@@H]2CCCN(CC3CCCC3)C2)C(=O)N4)ccn1 [Compound 138]
< 50 nM | – | Cn1cc(-c2n[nH]c3cc4c(cc23)CN([C@@H]2CN(CC(F)(F)F)C[C@H]2c2ccccc2)C(=O)N4)ccc1=O [Compound 346]
< 50 nM | – | Cc1cc(-c2n[nH]c3cc4c(cc23)CN([C@@H]2CN(CC(F)(F)F)C[C@H]2C(F)(F)F)C(=O)N4)ccn1 [Compound 331]
< 50 nM | – | Cc1cc(-c2n[nH]c3cc4c(cc23)CN([C@@H]2CCCN(C(C)C)C2)C(=O)N4)ccn1 [Compound 247]
– | < 50 nM | Cc1cc(-c2n[nH]c3cc4c(cc23)CN([C@H](CO)c2cccc(Cl)c2)C(=O)N4)ccn1 [Compound 26]
< 50 nM | – | COc1cc(-c2n[nH]c3cc4c(cc23)CN([C@@H]2CN(C)C[C@H]2c2ccccc2)C(=O)N4)ccn1 (mixture of isomers) [Compound 354]
< 50 nM | – | Cn1cc(-c2n[nH]c3cc4c(cc23)CN([C@@H]2CCN(CC(F)(F)F)C2)C(=O)N4)cn1 [Compound 259]
< 50 nM | – | Cc1cc(-c2n[nH]c3cc4c(cc23)CN([C@@H]2CNC[C@H]2c2ccccc2)C(=O)N4)ccn1 (racemic) [Compound 223]
< 50 nM | – | Cc1ccc(-c2n[nH]c3cc4c(cc23)CN([C@@H]2CCN(CC(F)(F)F)C2)C(=O)N4)cn1 [Compound 274]
< 50 nM | – | Cc1cc(-c2n[nH]c3cc4c(cc23)CN([C@@H]2CN(CC(F)(F)F)C[C@H]2c2ccccc2)C(=O)N4)cc(C)n1 [Compound 339]
< 50 nM | – | Cc1cc(-c2n[nH]c3cc4c(cc23)CN(C2CCC2)C(=O)N4)ccn1 [Compound 243]
– | < 50 nM | O=C1Nc2cc3[nH]nc(-c4ccnnc4)c3cc2CN1Cc1ccc(F)cc1F [Compound 114]
< 50 nM | – | Cc1cc(-c2n[nH]c3cc4c(cc23)CN(C(C)c2nccs2)C(=O)N4)ccn1 (stereo not shown) [Compound 234]
< 50 nM | – | O=C1Nc2cc3[nH]nc(-c4cccnc4)c3cc2CN1[C@@H]1CN(CC(F)(F)F)C[C@H]1c1ccccc1 [Compound 341]
– | 50 to 250 nM | O=C1Nc2cc3[nH]nc(C4CC4)c3cc2CN1Cc1ccc(F)c(Cl)c1 [Compound 42]
< 50 nM | – | Cc1cc(-c2n[nH]c3cc4c(cc23)CN(Cc2ccccc2C(F)(F)F)C(=O)N4)ccn1 [Compound 218]
< 50 nM | – | Cc1cc(-c2n[nH]c3cc4c(cc23)CN(CC2CCCCC2)C(=O)N4)ccn1 [Compound 213]
– | < 50 nM | COc1ncc(-c2n[nH]c3cc4c(cc23)CN(Cc2cccc(C(F)(F)F)c2)C(=O)N4)cn1 [Compound 119]
< 50 nM | – | Cc1cc(-c2n[nH]c3cc4c(cc23)CN([C@@H]2CCCN(Cc3sccc3F)C2)C(=O)N4)ccn1 [Compound 291]
< 50 nM | – | COc1ncc(-c2n[nH]c3cc4c(cc23)CN([C@@H]2CN(CC(F)(F)F)C[C@H]2c2ccccc2)C(=O)N4)cn1 [Compound 348]
